Data from publication PMC11899342, “Novel Triazeneindole Antibiotics: Synthesis and Hit-to-Lead Optimization” (International Journal of Molecular Sciences, 2025).
Like-named read-outs stand apart in the source and are kept apart here.

Tests used:
MRSA clinical isolates = assay: MIC by broth microdilution against multidrug-resistant MRSA clinical isolates; format: cell-based, Staphylococcus aureus; settings: for MIC: Staphylococcus aureus, MRSA, read-out: MIC
In short: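 Multidrug-resistant clinical MRSA isolates, 1 × 10^6 CFU/mL suspension in Mueller Hinton broth, broth microdilution with compounds at final 1, 0.5, 0.25 and 0.125 mg/L. Incubated 18 h at 37 °C; MIC taken as lowest concentration with no visible growth, triplicate.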

[1] = tested on: human embryonic fibroblasts (HEFs); assay: MTT cytotoxicity on human embryonic fibroblasts; format: cell-based; settings: Homo sapiens, Fibroblast, 24 h, ND = non-toxic in tested concentrations (up to 50 mg/L)
Description: (§1) The primary screening of 22 substances was performed on human embryonic fibroblasts (HEFs). […] The HepG2 cell line was obtained from the American Type Culture Collection (ATCC cat. # HB-8065). The primary HEF cells (normal human embryonic fibroblasts) were derived from human embryonic stem cells. The cells were cultured in DMEM/F12 (1:1) medium containing 10% fetal bovine serum (Invitrogen, Carlsbad, CA, USA) at 37 °C and 5% CO2, according to standard mammalian tissue culture protocols and sterile technique. […] The incubation time with the substance was 24 h for all substances and cell lines. Cell detachment by trypsin, centrifugation, and counting in a hemocytometer were performed 16 h before the addition of the substance. For correct counting of the HepG2 cells, the cell suspension was passed through a syringe needle to get rid of cell aggregates. The cells were placed in the wells of a 96-well plate. The number of cells was selected according to the properties of the cell line and the final optical density in the experiment. Fibroblasts and hepatocytes were used in the amount of 10 thousand cells per well in 100 μL of DMEM/F12 medium supplemented with 10% fetal bovine serum. The substances were added to 100 µL of medium in the wells so that the final concentrations were 50, 25, 12.5, 6.25, 3.125, and 1.62 mg/L. The final well volume was 200 µL. The medium containing fetal bovine serum, without added substances, was used as a negative control. After 24 h, excessive amounts of medium were discarded. A total of 30 µL of MTT solution (5 mg/mL in PBS) was added to each well. After the precipitation of formazan crystals (3 h incubation), they were dissolved using 100 μL of dimethyl sulfoxide. The optical density (OD) was measured at 570 nm using a microplate reader (Eppendorf). For every condition, the cell viabilities were assessed in at least three independent experiments for every cell culture. Cell survival was calculated using the following formula:(OD of treated cells − OD blank)/(OD of control cells − OD blank) × 100%, where OD blank represents the OD values in wells without cells but with the addition of the MTT and DMSO solutions. The results were presented in the form of cytotoxicity curves, and the graphs were also plotted in a Microsoft Excel program; the calculation of the IC50 half-maximal inhibition concentration values was performed in a GraphPad Prism 6.0 (GraphPad Software Inc., San Diego, CA, USA) program, based on the equations of the cytotoxicity curves.

[2] = Solubility in water by HPLC; format: physicochemical; settings: water, kinetic from dmso stock
In short: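 Compound (1.0 mg in 10 μL DMSO) mixed with 1.0 mL water, shaken 5 min and centrifuged; supernatant analysed by C18 HPLC. Water concentration derived from peak area relative to an acetonitrile standard at 1.0 mg/mL.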

[3] = tested on: HepG2 human liver carcinoma cells; assay: MTT cytotoxicity (hepatotoxicity) on HepG2; format: cell-based; settings: Homo sapiens, HepG2, 24 h
Description: as §1

MRSA = assay: Selectivity index (average IC50 on eukaryotic cells / average MIC on MRSA); format: cell-based, Staphylococcus aureus; settings: average IC50 on eukaryotic cells divided by average MIC on MRSA
Description: The selectivity index was calculated for each compound as the average IC50 on eukaryotic cells divided by the average MIC on MRSA (Table 2).

CCOC(=O)c1[nH]c2ccccc2c1/N=N/N1CCN(C)CC1 [BX-SI001, Ethyl (E)-3-((4-methylpiperazin-1-yl)diazenyl)-1H-indole-2-carboxylate]
22 µg/mL: IC50 [3]
280 µM: solubility at 5 min ([2]; read-out: Solubility in water, molar concentration)
19: Selectivity Index (MRSA)
90.5 µg/mL: solubility at 5 min ([2]; read-out: Solubility in water, mass concentration)
0.5 µg/mL: MIC (MRSA clinical isolates; Table S4, MRSA strain 1) | MIC (MRSA clinical isolates; Table S4, MRSA strain 5) | MIC (MRSA clinical isolates; Table S4, MRSA strain 6) | MIC (MRSA clinical isolates; Table S4, MRSA strain 16) | MIC (MRSA clinical isolates; Table S4, MRSA strain 26)
19 µg/mL: IC50 [1]
1 µg/mL: MIC Range Against 8 MRSA Strains (MRSA clinical isolates; 8 multidrug-resistant MRSA clinical isolates, tested 0.125-1 mg/L) | MIC (MRSA clinical isolates; Table S4, MRSA strain 2) | MIC (MRSA clinical isolates; Table S4, MRSA strain 3) | MIC (MRSA clinical isolates; Table S4, MRSA strain 4) | MIC (MRSA clinical isolates; Table S4, MRSA strain 7) | MIC (MRSA clinical isolates; Table S4, MRSA strain 8) | MIC (MRSA clinical isolates; Table S4, MRSA strain 9) | MIC (MRSA clinical isolates; Table S4, MRSA strain 10) | MIC (MRSA clinical isolates; Table S4, MRSA strain 12) | MIC (MRSA clinical isolates; Table S4, MRSA strain 13) | MIC (MRSA clinical isolates; Table S4, MRSA strain 14) | MIC (MRSA clinical isolates; Table S4, MRSA strain 15) | MIC (MRSA clinical isolates; Table S4, MRSA strain 17) | MIC (MRSA clinical isolates; Table S4, MRSA strain 18) | MIC (MRSA clinical isolates; Table S4, MRSA strain 21) | MIC (MRSA clinical isolates; Table S4, MRSA strain 23) | MIC (MRSA clinical isolates; Table S4, MRSA strain 24) | MIC (MRSA clinical isolates; Table S4, MRSA strain 25) | MIC (MRSA clinical isolates; Table S4, MRSA strain 27) | MIC (MRSA clinical isolates; Table S4, MRSA strain 28) | MIC (MRSA clinical isolates; Table S4, MRSA strain 29) | MIC (MRSA clinical isolates; Table S4, MRSA strain 30) | MIC (MRSA clinical isolates; Table S4, MRSA strain 31) | MIC (MRSA clinical isolates; Table S4, MRSA strain 34) | MIC (MRSA clinical isolates; Table S4, MRSA strain 35) | MIC (MRSA clinical isolates; Table S4, MRSA strain 36) | MIC (MRSA clinical isolates; Table S4, MRSA strain 40) | MIC (MRSA clinical isolates; Table S4, MRSA strain 41) | MIC (MRSA clinical isolates; Table S4, MRSA strain 42) | MIC (MRSA clinical isolates; Table S4, MRSA strain 43) | MIC (MRSA clinical isolates; Table S4, MRSA strain 44) | MIC (MRSA clinical isolates; Table S4, MRSA strain 45) | MIC (MRSA clinical isolates; Table S4, MRSA strain 46) | MIC (MRSA clinical isolates; Table S4, MRSA strain 48) | MIC (MRSA clinical isolates; Table S4, MRSA strain 49) | MIC (MRSA clinical isolates; Table S4, MRSA strain 50) | MIC (MRSA clinical isolates; Table S4, MRSA strain 51)
